Measurements: patent publication US7026359B1, “Utilization of a highly fluorinated oligomeric alkane in ophthalmology” (Bausch & Lomb Incorporated, priority 1999, dated 2006)

Assays:
Type in all cases: physicochemical
[1] = Critical solubility temperature in hexane (CST), qualitative measure of lipophilicity / tissue penetration
Text: The tissue penetration capacity can be described qualitatively by the critical solubility temperature in hexane (abbreviation: CST). This qualitative measure of lipophilicity is at the same time a measure of the capacity for tissue penetration.

[2] = Sterilization in an autoclave (stability); details: 121° C. in an autoclave
Experimental: The highly fluorinated oligomer (C6F13CHCH2)3 is dissolved in fluorocarbons and purified via an Al2O3 chromatographic column. After removal of the solvent the last traces of volatile contaminants are removed in a vacuum. The highly fluorinated trimer according to nuclear spin resonance, infrared and mass spectroscopic tests, a uniform and highly pure substance with a molecular weight of 1055. Charging with an active agent takes place under mild conditions via a solvent that is not miscible with the trimer after distribution to saturation concentration. β-Carotene as active agent changes the color of the oligomer slightly. […] The nuclear magnetic data of this substance are as follows: […]

Refractive index = assay: Refractive index
Surface tension = assay: Surface tension
Viscosity = assay: Viscosity
Density = assay: Density

What does the source list for (C6F13CHCH2)3 [Example 1]?
Critical solubility temperature in n-hexane, CST [1]: 35 °C; Stability on sterilization [2]: without the physical or chemical properties of the substances being changed; Refractive index n^D20 (Refractive index): 1.3351; Surface tension (Surface tension): 19.5 mN/m; Viscosity (Viscosity): 220 mPa·sec; Density (Density): 1.661 g/mL
